Measurements from US20050209298A1, “Method of photodynamic diagnosis for vascular diseases” (HAMAMATSU PHOTONICS K.K, priority 2002, published 2005).

Columns and labels:
[1] = tested on: Human Umbilical Vein Endothelial Cells (HUVECS); assay: Effects of PDT on inflamed human umbilical vein endothelial cells (MTT viability); assay type: cell-based; conditions: non-irradiated groups (0 J/cm^2); 25 or 50 μg/mL
Protocol: Test 1 (in vitro Test): Effects of PDT on Human Umbilical Vein Endothelial Cells (HUVECS)
As a first step, we determined if cell death of inflamed HUVECs can be induced by PDT.
HUVECs were seeded in a culture medium at […]. After a predetermined culture period, IL-1β(1 ng/mL) and TNF-α(10 ng/mL) were added to stimulate the cells and, thus, cause inflammation of the cells. After a 1-hour stimulation period, the cells were divided into two groups, and 25 μg/ml of ATX-S10•Na of the present invention was added to one group and 50 μg/ml of ATX-S10•Na to the other group. Subsequently, the cells were incubated at 37° C. for 24 hours.
After the incubation period, laser was irradiated onto the cultured cells (each dosage group was divided into five subgroups, which were irradiated at 0, 15, 30, 50, and 100 J/cm^2). 24 hours after the irradiation, the viability of HUVECs was determined by MTT assay.

[2] = tested on: type II collagen-induced arthritis; assay: Effects of PDT on model mice with type II collagen-induced arthritis; assay type: in vivo; conditions: 5 mg/kg i.v.
Protocol: Test 2 (in vivo Test): Effects of PDT on Model Mice with Type II Collagen-Induced Arthritis Male DBA/1 mice, aged6 to 8 weeks and weighing 15 to 18 g, were used. Arthritis was induced by type II collagen according to the following schedule. On Day 0, 2 mg. of anti-type II collagen antibody cocktail was intraperitoneally injected. On Day 1, 2 mg of anti-type II collagen antibody cocktail was again intraperitoneally injected. On Day 2 and Day 3, 50 μg of lipopolysaccharide (LPS) was intraperitoneally injected to induce type II collagen arthritis. On Day 5, induction of type II collagen arthritis was confirmed. A test group of 5 animals and a control group of 3 animals were intravenously injected with 5 mg/kg of ATX-S10•Na. The test group was exposed to laser irradiation (dose: 30 J/cm^2) 3 hours after administration of ATX-S10•Na. […] Each animal was perfusion-fixed, and joint tissue was collected and stained with Safranin 0. The resulting decalcified tissue sample was subjected to histological analysis.

[3] = tested on: Keratinocytes from a patient with inflammatory keratosis; assay: Cytotoxicity of PDT against cultured keratinocytes; assay type: cell-based, human; conditions: 50 μg/mL; laser 10 J/cm^2; 6 hours after laser irradiation; viable cells prior to irradiation = 100%
Protocol: FIG. 6 is a graph showing cytotoxic effects of PDT using ATX-S10•Na of the present invention on cultured keratinocytes. 50 μg/mL of ATX-S10•Na of the present invention was added to the cell culture. After a predetermined culture period, the cells were washed with PBS and were irradiated with laser at 10 J/cm^2. The viability of the keratinocytes was determined 1, 2, 3, 6, 12, and 24 hours after the irradiation and was plotted on a graph.
Test 3 (in vitro Test): Cytotoxicity Against Cultured Keratinocytes
Keratinocytes were collected from a patient with inflammatory keratosis and were cultured at 37° C. for 24 hours. To the cell culture, 50 μg/mL of ATX-S10•Na of the present invention was added and the cells were further cultured under the same conditions.
Assuming the initial number of the viable cells in the culture medium prior to laser irradiation to be 100%, the viability of the cells was determined at 1, 2, 3, 6, 12, and 24 hours after the irradiation. As shown, 75% of the keratinocytes incubated with ATX-S10•Na died 6 hours after laser irradiation.

TPA-caused dermatitis = assay: TPA-induced dermatitis in mouse skin: skin accumulation and PDT after ATX-S10•Na ointment; assay type: in vivo, mice; conditions: 1% ointment, 3 hours
Protocol: Test 4 (in vivo Test): Induction of Dermatitis in Mouse Skin by Treatment with Tetradecanoyl Phorbol Acetate (TPA) and Therapeutic Effects of PDT Following Application of ATX-S10•Na Ointment Using a hydrophilic ointment base described in Japanese Pharmacopoeia, two hydrophilic ointments, one containing 1% of ATX-S10•Na and the other 10% of the compound, were prepared by a common pharmaceutical technique. Male DBA/1 mice, aged 6 to 8 weeks and weighing 15 to 18 g, were shaved with a clipper and a razor. TPA was then applied to the skin to induce dermatitis. 3) To a test group, the hydrophilic ointment containing 1% ATX-S10•Na was applied. The ointment was applied to the region of the skin where dermatitis was induced and was rinsed off after 3 hours. To a control group, an ATX-S10•Na-free hydrophilic ointment was applied and was also rinsed off after application. […] The test group was then divided into two subgroups: one group was irradiated with laser at 100 J/cm^2 and the other group was not irradiated. Skin histology of each animal was observed.

## C=CC1=C(C)C2=CC3=C(/C=C/NO)C(C)(O)C(=CC4=NC(=CC5=NC(=CC1=N2)C(C)=C5CCC(=O)N[C@@H](CC(=O)[O-])C(=O)[O-])C(CCC(=O)N[C@@H](CC(=O)[O-])C(=O)[O-])=C4C)N3.[Na+].[Na+].[Na+].[Na+] (stereo partly shown) [ATX-S10•Na]
[1]
  cell death of HUVECs: no cell death was observed
[2]; laser 30 J/cm^2, test group
  synovial infiltration (histological analysis of joint tissue): synovial infiltration was suppressed
[2]; no laser irradiation (control group)
  synovial infiltration (histological analysis of joint tissue): significant infiltration of synovial cells
[2]; no laser irradiation (control group), Day 14
  clinical arthritis score: 4
[3]
  keratinocytes died: 75%
TPA-caused dermatitis; laser 100 J/cm^2
  TPA-caused dermatitis inflamed region (skin histology): significant decrease in the inflamed region
TPA-caused dermatitis; non-irradiated group
  TPA-caused dermatitis inflamed region (skin histology): sustained
